Measurements published in patent US8399414B2, “Analgesics” (NRL Pharma, Inc., priority 2002, dated 2013).

Tests used:
[1] = tested on: patients with osteoarthritis; assay: osteoarthritis patients, oral enteric coated tablets (Example 9); assay type: in vivo, human; conditions: diclofenac in the former, ibuprofen in the latter
Method: Lactoferrin extracted from bovine milk was formed into enteric coated tablets (Production Example 4) and given orally to a person whose right knee and right elbow were affected by osteoarthritis associated with the injuries caused by their falling off a bicycle and a person whose knee joints were affected by osteoarthritis associated with obesity. Lactoferrin was administered at a dose of 150 mg (450 mg per day) 3 times a day after each meal.

male Wistar rats [2] = assay: formalin test, intrathecal administration, comparison with morphine (Example 12); assay type: in vivo; conditions: 30 minutes before formalin, bLF 0.1 to 100 μg/rat, rhLF 100 μg/rat, morphine 10 μg/rat, FIGS. 15
Method: Groups consisting of male Wistar rats 6 weeks of age (n=6 to 8) were intrathecally administered 0.1 to 100 μg/rat of bovine lactoferrin (bLF), 100 μg/rat of recombinant human lactoferrin (rhLF) or 10 μg/rat of morphine (Mor) 30 minutes before formalin was injected into their foot pads. The results are shown in FIGS. 15: the number of the foot-lifting times in the phase 1 pain (left graph) and the number of the foot-lifting times in the phase 2 pain (right graph).

male Wistar rats [3] = assay: formalin test, comparison with diclofenac (Example 3); assay type: in vivo, rat; conditions: i.p. 30 minutes before formalin
Method: Male Wistar rats 6 weeks of age were used. The rats in one group were given bovine lactoferrin and those in another group were given a control drug, diclofenac, by intraperitoneal administration 30 minutes before injecting formalin into their foot pads. Their responses to pain are shown in FIG. 5: the phase 1 pain (left) and the phase 2 pain (right).
Lactoferrin and diclofenac were administered intraperitoneally 30 minutes before formalin injection both in the control group (n=4) and the diclofenac group (n=5). The pain inhibiting effect of diclofenac disappeared about 50 minutes after formalin injection, whereas the pain inhibiting effect of lactoferrin lasted long and even 60 minutes after formalin injection.

[4] = tested on: volunteers affected by frozen shoulder; assay: frozen shoulder volunteers, oral enteric coated tablets (Example 11); assay type: in vivo, human
Method: Three male volunteers […], each of who was affected frozen shoulder and could not raise either one of their hands above the shoulder, took orally the enteric coated tablets of lactoferrin from bovine milk (Production Example 4). […] They took lactoferrin in a daily dose of 450 mg in 3 uniformly divided portions after each meal. […] disappeared and was cured in one volunteer on day 7 after the initial administration and in the other volunteers on day 12 and on day 23 after the same, respectively.

In the case of CC(C)Cc1ccc(C(C)C(=O)O)cc1 (centres unmarked) [ibuprofen], the “response to earlier treatment” value [1] is reported as “failed to respond”.

In the case of CN1CC[C@]23c4c5ccc(O)c4O[C@H]2[C@@H](O)C=C[C@H]3[C@H]1C5 [morphine, reference compound], the “phase 1 pain (number of foot-lifting times)” value (male Wistar rats [2]) is reported as “inhibits” and the “phase 2 pain (number of foot-lifting times)” value (male Wistar rats [2]) is reported as “inhibits”.

For O=C(O)Cc1ccccc1Nc1c(Cl)cccc1Cl [diclofenac, reference compound], the “inhibition of phase 1 pain” value (male Wistar rats [3]; FIG. 5) was “did not”, the “inhibition of phase 2 pain” value (male Wistar rats [3]; FIG. 5) was “inhibited the phase 2 pain, but the degree of inhibition was low compared with that by lactoferrin” and the “duration of pain inhibiting effect after formalin injection” value (male Wistar rats [3]; FIGS. 7 and 8) was “about 50 minutes”. For the same compound, the “response to earlier treatment” value [1] was “failed to respond” and the “response to earlier treatment” value [4] was “failed to respond”.
